pIC50: −log10 of the molar value.
Experiments:
[1] = molecular target: human Cat L (Homo sapiens (Human), UniProt P07711); assay: Cathepsin enzyme inhibition assay (fluorogenic peptide substrate), human Cat L; assay type: biochemical; conditions: human Cat L 1 nM, substrate Z-Val-Val-Arg-AMC 20 μM, pH 6.5
Method: (§1) Cathepsin Enzyme Inhibition Assay
(§2) Enzyme activity is measured by observing the increase in fluorescence intensity caused by cleavage of a peptide substrate containing a fluorophore whose emission is quenched in the intact peptide.
(§3) Assay buffer: 100 mM potassium phosphate pH 6.5, EDTA-Na 5 mM, Triton X-100 0.001%, DTT 5 mM.
(§4) Enzymes (all at 1 nM): human and mouse Cathepsin S, Cat K, Cat B, Cat L.
(§5) Substrate (20 μM): Z-Val-Val-Arg-AMC, except for Cat K which uses Z-Leu-Arg-AMC (both from Bachem).
(§6) AMC=7-Amino-4-Methyl-Coumarin.
(§7) Excitation 360 nm, Emission 465 nm.
(§8) Enzyme is added to the substance dilutions in 96-well microtitre plates and the reaction is started with substrate. […] IC50 are calculated by standard methods.
(§9) Inhibition of human Cat S, mouse Cat S, human Cat K, human Cat B, human Cat L and mouse Cat L have been measured separately.

[2] = molecular target: human Cathepsin S (Homo sapiens (Human), UniProt P25774); assay: Cathepsin enzyme inhibition assay (fluorogenic peptide substrate), human Cat S; assay type: biochemical; conditions: human Cat S 1 nM, substrate Z-Val-Val-Arg-AMC 20 μM, pH 6.5
Method: as §1, §2, §3, §4, §5, §6, §7, §8, §9

Sequence of human Cat L (P07711 114-333): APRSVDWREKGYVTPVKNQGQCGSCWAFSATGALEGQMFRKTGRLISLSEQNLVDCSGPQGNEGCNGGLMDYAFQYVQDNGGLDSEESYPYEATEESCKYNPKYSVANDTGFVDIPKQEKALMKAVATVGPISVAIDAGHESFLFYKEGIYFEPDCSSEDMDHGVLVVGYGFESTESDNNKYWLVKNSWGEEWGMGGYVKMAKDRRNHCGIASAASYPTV
Sequence of human Cathepsin S (P25774 115-331): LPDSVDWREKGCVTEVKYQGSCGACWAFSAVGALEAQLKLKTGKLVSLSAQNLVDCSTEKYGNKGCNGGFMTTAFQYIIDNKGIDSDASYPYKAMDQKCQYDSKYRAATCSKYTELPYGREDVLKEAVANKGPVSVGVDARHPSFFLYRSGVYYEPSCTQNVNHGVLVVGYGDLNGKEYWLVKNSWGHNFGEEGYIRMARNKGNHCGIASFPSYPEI

Structure (SMILES) | pIC50 [1] | pIC50 [2]
N#CC1(NC(=O)[C@@H]2C[C@@H](S(=O)(=O)c3ccccc3F)CN2C(=O)C2(c3ncc(I)cc3F)CC2)CC1 [Example 41, (2S,4R)-4-(2-Fluoro-benzenesulfonyl)-1-[1-(3-fluoro-5-iodo-pyridin-2-yl)-cyclopropanecarbonyl]-pyrrolidine-2-carboxylic acid (1-cyano-cyclopropyl)-amide] | 8.52 | 9.22
N#CC1(NC(=O)[C@@H]2C[C@@H](S(=O)(=O)c3ccccc3F)CN2C(=O)C2(c3ncc(Cl)cc3F)CC2)CC1 [Example 42, (2S,4R)-1-[1-(5-Chloro-3-fluoro-pyridin-2-yl)-cyclopropanecarbonyl]-4-(2-fluoro-benzenesulfonyl)-pyrrolidine-2-carboxylic acid (1-cyano-cyclopropyl)-amide] | 7.51 | 9.15
N#CC1(NC(=O)[C@@H]2C[C@@H](S(=O)(=O)c3ccccc3-n3cccn3)CN2C(=O)C2(c3ncc(I)cc3F)CC2)CC1 [Example 43, (2S,4R)-1-[1-(3-Fluoro-5-iodo-pyridin-2-yl)-cyclopropanecarbonyl]-4-(2-pyrazol-1-yl-benzenesulfonyl)-pyrrolidine-2-carboxylic acid (1-cyano-cyclopropyl)-amide] | 7.04 | 7.77
N#CC1(NC(=O)[C@@H]2C[C@@H](S(=O)(=O)c3ccccc3-n3ccnn3)CN2C(=O)C2(c3ncc(I)cc3F)CC2)CC1 [Example 44, (2S,4R)-1-[1-(3-Fluoro-5-iodo-pyridin-2-yl)-cyclopropanecarbonyl]-4-(2-[1,2,3]triazol-1-yl-benzenesulfonyl)-pyrrolidine-2-carboxylic acid (1-cyano-cyclopropyl)-amide] | 5.81 | 8.62
N#CC1(NC(=O)[C@@H]2C[C@@H](S(=O)(=O)c3ccccc3-n3cncn3)CN2C(=O)C2(c3ncc(I)cc3F)CC2)CC1 [Example 45, (2S,4R)-1-[1-(3-Fluoro-5-iodo-pyridin-2-yl)-cyclopropanecarbonyl]-4-(2-[1,2,4]triazol-1-yl-benzenesulfonyl)-pyrrolidine-2-carboxylic acid (1-cyano-cyclopropyl)-amide] | 4.55 | 6.49
N#CC1(NC(=O)[C@@H]2C[C@@H](S(=O)(=O)c3ccccc3-n3cccn3)CN2C(=O)C2(c3ncc(Cl)cc3F)CC2)CC1 [Example 46] | 4.76 | 6.80
N#CC1(NC(=O)[C@@H]2C[C@@H](S(=O)(=O)c3ccccc3-n3ccnn3)CN2C(=O)C2(c3ncc(Cl)cc3F)CC2)CC1 [Example 47, (2S,4R)-1-[1-(5-Chloro-3-fluoro-pyridin-2-yl)-cyclopropanecarbonyl]-4-(2-[1,2,3]triazol-1-yl-benzenesulfonyl)-pyrrolidine-2-carboxylic acid (1-cyano-cyclopropyl)-amide] | 4.45 | 8.37
N#CC1(NC(=O)[C@@H]2C[C@@H](S(=O)(=O)c3ccccc3-n3cncn3)CN2C(=O)C2(c3ncc(Cl)cc3F)CC2)CC1 [Example 48, (2S,4R)-1-[1-(5-Chloro-3-fluoro-pyridin-2-yl)-cyclopropanecarbonyl]-4-(2-[1,2,4]triazol-1-yl-benzenesulfonyl)-pyrrolidine-2-carboxylic acid (1-cyano-cyclopropyl)-amide] | 4.68 | 7.23

— patent US9409882B2, “Pyridine derivatives” (Hoffmann-La Roche Inc., priority 2012, dated 2016)
